Results from article PMC7797070 (Nucleic Acids Research, 2020).

Tests used:
[1] = target: T1, RelA^NTD (E. coli RelA NTD, 1-385) (Escherichia coli, UniProt P0AG20); assay: isothermal titration calorimetry; format: binding
T1 sequence (P0AG20 1-385): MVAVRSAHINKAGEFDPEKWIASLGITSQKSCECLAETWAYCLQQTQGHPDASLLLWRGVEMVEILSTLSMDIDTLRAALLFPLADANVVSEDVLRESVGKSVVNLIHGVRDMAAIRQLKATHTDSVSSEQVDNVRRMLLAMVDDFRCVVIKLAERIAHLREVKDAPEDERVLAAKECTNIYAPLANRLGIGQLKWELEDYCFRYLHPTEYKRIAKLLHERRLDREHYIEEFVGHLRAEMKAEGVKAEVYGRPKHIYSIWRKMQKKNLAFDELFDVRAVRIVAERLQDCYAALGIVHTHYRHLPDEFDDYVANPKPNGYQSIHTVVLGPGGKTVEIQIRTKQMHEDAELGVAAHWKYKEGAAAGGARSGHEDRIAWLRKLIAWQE

[2] = target: Rel^NTD (B. subtilis Rel NTD, 1-373) (Bacillus subtilis, UniProt O54408); assay: isothermal titration calorimetry; format: binding
[3] = target: B. subtilis Rel (full-length) (Bacillus subtilis, UniProt O54408); assay: 3H-; format: biochemical; conditions: 0.3 mM labelled compound; 1 mM ATP; 5 mM Mg2+; pH 7.5, 37 °C
[4] = target: T2, E. coli RelA (full-length) (Escherichia coli, UniProt P0AG20); assay: 3H-; format: biochemical; conditions: labelled compound; 1 mM ATP; 100 μM ppGpp or pppGpp added; 37 °C
T2 sequence (P0AG20 1-744): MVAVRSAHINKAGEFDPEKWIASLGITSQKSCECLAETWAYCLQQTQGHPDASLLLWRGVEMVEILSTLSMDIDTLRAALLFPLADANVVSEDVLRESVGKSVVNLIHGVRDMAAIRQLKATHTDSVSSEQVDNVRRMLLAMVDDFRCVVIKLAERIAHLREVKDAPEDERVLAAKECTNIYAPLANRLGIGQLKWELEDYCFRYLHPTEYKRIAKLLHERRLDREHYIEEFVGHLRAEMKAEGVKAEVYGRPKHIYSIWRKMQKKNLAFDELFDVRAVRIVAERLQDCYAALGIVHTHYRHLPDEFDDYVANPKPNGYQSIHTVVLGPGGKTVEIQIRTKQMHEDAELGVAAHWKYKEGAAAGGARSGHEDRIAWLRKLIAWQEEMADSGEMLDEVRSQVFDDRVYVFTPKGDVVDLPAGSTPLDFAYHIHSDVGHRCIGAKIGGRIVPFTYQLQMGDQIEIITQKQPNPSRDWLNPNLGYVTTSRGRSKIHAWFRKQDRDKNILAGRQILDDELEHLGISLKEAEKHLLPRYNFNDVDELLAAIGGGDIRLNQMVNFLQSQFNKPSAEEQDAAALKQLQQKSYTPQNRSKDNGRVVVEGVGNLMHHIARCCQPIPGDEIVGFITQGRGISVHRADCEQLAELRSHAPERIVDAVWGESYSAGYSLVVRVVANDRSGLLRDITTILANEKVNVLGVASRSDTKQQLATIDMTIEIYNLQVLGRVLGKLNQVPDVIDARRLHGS

Sequence of Rel^NTD (B. subtilis Rel NTD, 1-373) (O54408 1-373): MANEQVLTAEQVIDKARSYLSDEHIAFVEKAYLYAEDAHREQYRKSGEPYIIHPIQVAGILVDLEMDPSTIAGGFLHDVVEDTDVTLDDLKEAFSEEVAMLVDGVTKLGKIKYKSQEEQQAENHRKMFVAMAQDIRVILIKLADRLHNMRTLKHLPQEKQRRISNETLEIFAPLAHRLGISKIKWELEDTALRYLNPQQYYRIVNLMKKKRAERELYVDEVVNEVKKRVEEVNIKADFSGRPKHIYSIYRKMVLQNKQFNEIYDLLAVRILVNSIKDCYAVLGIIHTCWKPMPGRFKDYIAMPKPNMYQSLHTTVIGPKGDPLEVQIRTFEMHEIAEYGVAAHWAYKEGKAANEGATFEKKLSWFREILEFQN
Sequence of B. subtilis Rel (full-length) (O54408 whole entry): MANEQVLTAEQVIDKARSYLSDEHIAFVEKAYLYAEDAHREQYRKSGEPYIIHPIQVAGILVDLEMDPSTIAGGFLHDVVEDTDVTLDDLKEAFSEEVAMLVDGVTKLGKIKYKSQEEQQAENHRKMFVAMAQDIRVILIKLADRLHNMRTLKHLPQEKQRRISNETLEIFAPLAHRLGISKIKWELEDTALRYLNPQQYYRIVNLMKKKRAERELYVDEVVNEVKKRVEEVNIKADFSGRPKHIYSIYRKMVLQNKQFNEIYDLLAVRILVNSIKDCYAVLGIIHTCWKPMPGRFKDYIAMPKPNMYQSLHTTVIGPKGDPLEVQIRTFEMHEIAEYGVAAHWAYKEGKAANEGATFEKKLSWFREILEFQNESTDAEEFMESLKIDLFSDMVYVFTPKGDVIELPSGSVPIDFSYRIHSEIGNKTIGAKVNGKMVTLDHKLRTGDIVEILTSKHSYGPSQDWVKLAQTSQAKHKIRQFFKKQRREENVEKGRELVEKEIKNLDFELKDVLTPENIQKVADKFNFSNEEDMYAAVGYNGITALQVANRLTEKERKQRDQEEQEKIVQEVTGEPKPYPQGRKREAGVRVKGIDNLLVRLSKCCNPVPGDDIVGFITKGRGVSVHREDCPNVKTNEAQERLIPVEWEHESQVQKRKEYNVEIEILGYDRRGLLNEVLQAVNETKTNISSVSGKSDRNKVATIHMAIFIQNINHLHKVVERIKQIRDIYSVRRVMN

In the case of `Nc1nc2c(ncn2[C@@H]2O[C@H](COP(=O)(O)OP(=O)(O)OP(=O)(O)O)[C@@H](OP(=O)(O)OP(=O)(O)O)[C@H]2O)c(=O)[nH]1` [pppGpp], the Kd [1] is reported as 6.9 ± 0.9 µM and the Kd [2] is reported as 10.6 ± 0.9 µM.

`Nc1nc2c(ncn2[C@@H]2O[C@H](COP(=O)(O)OP(=O)(O)OP(=O)(O)O)[C@@H](O)[C@H]2O)c(=O)[nH]1` [GTP] was tested, and the “3H-(p)ppGpp synthesis assay, TLC and scintillation counting” value [3] was “B. subtilis Rel is moderately more efficient in converting GTP to pppGpp”.

With `Nc1nc2c(ncn2[C@@H]2O[C@H](COP(=O)(O)OP(=O)(O)O)[C@@H](O)[C@H]2O)c(=O)[nH]1` [GDP] the “3H-(p)ppGpp synthesis assay, TLC and scintillation counting” value [4] was “the ppGpp alarmone is produced in situ from 3H-GDP”.
